What was measured:
[1] = tested on: MCF-7 single cells; assay: Single cell impedance monitoring on the biosensor (EDR single cell analysis); format: cell-based, human; conditions: for mean impedance changes of the single cells over time, in words: 2.1 and 10.5 nM MBZ, 0.1 and 1 nM PTX, nano-roughened biosensor, about 4 kHz, FIG. 12A
Description: MCF-7 cell lines which were acquired to be used in this example. The cell lines have been separated from grad I human breast tumors. The cell lines were maintained at 37° C. in an incubator (about 5% CO2, about 95% clean air) and in RPMI-1640 medium supplemented with about 5% fetal bovine serum and about 1% penicillin/streptomycin. The fresh medium was replaced every other day. In order to detach cell from the substrate and become suspended in cell solution, cells was trypsynized. As performing cell culturing process at room temperature of about 20° C. -22° C., trypsinization should be done in less than about 6 minutes to minimize the influence of trypsinization. The cell solution was dropped onto an exemplary biosensor, which was fabricated according to EXAMPLE 1, and then the biosensor was maintained in an incubator for about 4 hours to reach cells attachment on the biosensor surface and trapping single cells within microwells of the biosensor.
Exemplary biosensors with cell solutions dropped onto them (as described herein in EXAMPLE 2) were maintained in an incubator for about 4 hours to reach cells attachment on biosensors surface. MBZ and PTX antitubulin drugs were added into the microwells containing single cells in low concentrations (about 2.1 nM for MBZ and about 0.1 nM for PTX) and high concentrations (about 10.5 nM for MBZ and about 1 nM for PTX) concentrations. The signals were recorded 2 hours, 5 hours, 8 hours, 20 hours, 32 hours, and 44 hours after drug addition that means 6 hours, 9 hours, 12 hours, 24 hours, […]. Electrical signals Measurements were collected in frequencies ranged from about 1 KHz to about 60 KHz by impedance measurement system (electrical signal extraction board) at about every 2 hours. A small “ac” sinusoidal signal was applied to the sensors. For different frequencies of the “ac” signal, the sensitivity of the sensor would vary which is called as the frequency characteristics. The bias voltage of the system was about 40 mV which wasn't destructive for cellular metabolism and a series resistance was used as current limiter element. For each cell trapped in each microwell of the biosensors, four electrodes may be used for signal extraction in two states (with up-down or right-left neighbor electrodes). The final result may be the average of the several signals extracted from the different sensors on a chip (several microwells on a biosensor) to consider cellular heterogeneity and different positioning of the cells relative to the electrodes and other parameters.
FIGS. 10A-10F show impedance diagrams for a MCF-7 single cell seeded and trapped in a microwell between electrodes about 4 hours after dropping the solution containing cells, which was assumed as an initial time (T=0) for all measurement experiments. After the attachment of the cell on the region between recording or sensing electrodes (after about 4 hours), observable increment in impedance was recorded with respect to media solution covered state (curve 1001 Vs. curve 1002 in FIG. 10A). T parameter was defined as a time merit started after dropping of the cells (t=4 hours was assumed equal to T=0). Delta Z (ΔZ) may include the difference between impedance at about 4 hours after cell seeding (equal to T=0) and the 4+x^th hours (x may be equal to 2, 5, 8, etc.), divided by the impedance at T=0. Average impedance of all frequencies were used for comparison. For better comprehension of impedimetric regime, the impedance changes of the CTRL cell were plotted in subsequently next time periods (about 6th, 9th, 12th and 24th hours) with respect to the impedance of the sensor in 4th hours after dropping the cells solution that are shown by curves 1003 (at T=2 or t=6 hours), 1004 (at T=5 or t=9 hours), 1005 (at T=8 or t=12 hours), and 1006 (at T=20 or t=24 hours) in FIG. 10B. […]

[2] = tested on: MCF-7 cells, cytoskeletal structure (microtubules); assay: Confocal imaging of drug treated single cells (anti-α-tubulin staining); conditions: 10.5 nM MBZ or 1 nM PTX, about 20 hours after drug treatment, compared with CTRL

Row | Structure (SMILES) | impedance reduction ([1]; 2.1 nM MBZ, T=2 hours, relative to T=0, FIG. 10C) | impedance reduction ([1]; 2.1 nM MBZ, T=6 hours (so in the source), relative to T=0, FIG. 10C) | impedance reduction ([1]; 2.1 nM MBZ, T=8 hours, relative to T=0, FIG. 10C) | impedance reduction ([1]; 2.1 nM MBZ, T=20 hours, relative to T=0, FIG. 10C) | impedance reduction ([1]; 10.5 nM MBZ, first time interval (T=2 hours), FIG. 10D) | impedance reduction ([1]; 10.5 nM MBZ, fourth time interval (T=20 hours), FIG. 10D) | impedance reduction ([1]; 10.5 nM MBZ, second time interval (T=6 hours as printed), FIG. 10D) | impedance reduction ([1]; 10.5 nM MBZ, third time interval (T=8 hours), FIG. 10D) | mean impedance changes of the single cells over time, in words [1] | effect on cytoskeletal structure and mitosis (confocal images), in words [2] | impedance increment ([1]; 0.1 nM PTX, T=about 2 hours, relative to T=0, FIG. 10E) | impedance increment ([1]; 0.1 nM PTX, T=about 5 hours, relative to T=0, FIG. 10E) | impedance increment ([1]; 0.1 nM PTX, T=about 8 hours, relative to T=0, FIG. 10E) | impedance increment ([1]; 0.1 nM PTX, T=about 20 hours, relative to T=0, FIG. 10E) | impedance increment ([1]; 1 nM PTX (high dose), T=2 hours, FIG. 10F) | impedance increment ([1]; 1 nM PTX (high dose), T=5 hours, FIG. 10F) | impedance increment ([1]; 1 nM PTX (high dose), T=8 hours, FIG. 10F) | impedance increment ([1]; 1 nM PTX (high dose), T=20 hours, FIG. 10F)
1 | COC(=O)Nc1nc2ccc(C(=O)c3ccccc3)cc2[nH]1 [MBZ, methyl5-benzoyl-2-benzimidazole-carbamate] | about 5% | ~10% | about 15% | ~30% | about 15% | ~45% | ~25% | ~35% | continues reduction in the impedance which exhibited a linier correlation with doses of the drug | No entrance to even primary cycles of mitosis, degraded distribution of cytoskeleton and monoastered microtubules |  |  |  |  |  |  |  | 
2 | CC(=O)O[C@H]1C(=O)[C@@]2(C)[C@H]([C@H](OC(=O)c3ccccc3)[C@]3(O)C[C@H](OC(=O)[C@H](O)[C@@H](NC(=O)c4ccccc4)c4ccccc4)C(C)=C1C3(C)C)[C@]1(OC(C)=O)CO[C@@H]1C[C@@H]2O [PTX, Paclitaxel] |  |  |  |  |  |  |  |  | moderate impedance increment with dose dependent reductive regime | aggregated MTs as polymerizing effect of Taxol on cytoskeletal structure which induced mitotic arrest in the cell and deformed the nucleus during the mitosis | about 10% | ~30% | ~35% | ~45% | about 5% | ~15% | ~20% | ~25%

Source: patent US20170350876A1, “BIOSENSOR FOR SINGLE CELL ANALYSIS” (priority 2016, published 2017)
